Tests used:
[1] = target: T1, human mGlu2 receptor (Homo sapiens, UniProt Q14416); experiment: [35S]GTPγS binding assay (mGluR2 negative allosteric modulation); type: biochemical; conditions: for IC50: membranes from CHO cells transfected with human mGlu2 receptor, glutamate 60 μM, pIC50 = −log IC50 (M), read-out: GTPγS - hmGluR2 anGT pIC50 (converted); for Emax: relative maximal effect: maximal % inhibition relative to the control glutamate response, read-out: GTPγS - hmGluR2 anGT Emax
T1 construct: expressed in transfected cells; host or cells: CHO cells (membrane preparation)
T1 sequence (Q14416 19-872): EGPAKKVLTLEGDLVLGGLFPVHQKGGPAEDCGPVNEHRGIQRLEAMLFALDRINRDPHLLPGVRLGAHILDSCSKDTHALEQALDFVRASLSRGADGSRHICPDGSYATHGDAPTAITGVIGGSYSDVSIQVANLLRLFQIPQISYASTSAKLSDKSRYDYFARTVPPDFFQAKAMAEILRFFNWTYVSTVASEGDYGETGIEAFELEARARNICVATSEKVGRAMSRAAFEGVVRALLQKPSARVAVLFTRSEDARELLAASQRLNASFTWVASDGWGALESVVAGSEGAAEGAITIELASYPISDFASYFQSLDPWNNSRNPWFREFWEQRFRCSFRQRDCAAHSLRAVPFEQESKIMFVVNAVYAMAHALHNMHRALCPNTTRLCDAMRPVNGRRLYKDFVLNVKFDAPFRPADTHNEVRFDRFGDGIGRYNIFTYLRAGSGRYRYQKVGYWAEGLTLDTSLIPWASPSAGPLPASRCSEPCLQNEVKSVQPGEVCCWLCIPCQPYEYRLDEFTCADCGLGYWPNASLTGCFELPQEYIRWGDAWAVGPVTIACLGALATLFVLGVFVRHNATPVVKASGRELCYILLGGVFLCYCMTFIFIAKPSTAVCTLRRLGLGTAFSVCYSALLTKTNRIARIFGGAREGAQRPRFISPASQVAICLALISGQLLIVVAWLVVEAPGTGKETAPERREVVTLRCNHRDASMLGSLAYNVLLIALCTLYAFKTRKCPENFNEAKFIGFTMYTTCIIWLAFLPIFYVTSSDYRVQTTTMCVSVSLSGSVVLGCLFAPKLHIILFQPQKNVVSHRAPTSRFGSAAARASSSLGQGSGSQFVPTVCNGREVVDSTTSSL
How it was run: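 Membranes from butyrate-stimulated CHO cells expressing human mGlu2; 7 μg protein in HEPES pH 7.4, 100 mM NaCl, 3 mM MgCl2, 10 μM GDP, 10 μg/ml saponin. Compound tested against EC80-equivalent glutamate; 0.1 nM [35S]GTPγS, 30 min, 30 °C; filtration, scintillation counting. Data as % of control glutamate response.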

[2] = test system: rats; experiment: Reversal of the effect of the mGluR2 PAM JNJ-42153605 on scopolamine-induced hyperlocomotion; type: in vivo; conditions: Rattus norvegicus, 1 h, test compound 60 min before recording, criterion total distance >1500 cm
Description: 2) Reversal of the Effect of the mGluR2 PAM JNJ-42153605 on Scopolamine-Induced Hyperlocomotion Apparatus
Motor activity was measured in microprocessor-based motor activity arenas (closed gray PVC cylinders with a height of 39 cm and a diameter of 31 cm). Each arena was placed on an infrared LED (8×8 LEDs) lit box (white PVC squared box; 40×40 cm^2; height 12.5 cm. An infrared-sensitive tube camera and a white light source were mounted to the ceiling above the observation chamber to track the animal. The total distance traveled (cm) was recorded and analyzed using the Noldus Ethovision XT Video Tracking System (Version 7.0.418; Noldus, Wageningen, The Netherlands). The intensity of the light within the activity cages (measured in the centre at the level of the floor) ranged between 4 and 8 LUX.
The rats were pretreated with test compound or vehicle at 60 min before the start of the activity recordings and placed into individual cages. The rats were challenged with JNJ-42153605 (3-(cyclopropylmethyl)-7-(4-phenylpiperidin-1-yl)-8-(trifluoromethyl)[1,2,4]triazolo[4,3-a]pyridine; WO2010/130424; Cid et al. J. Med. Chem. 2012, 55, 8770-8789) (20 mg/kg, i.v.) 30 min before the start of the activity recording combined with scopolamine (0.16 mg/kg, i.v.) just before the start of the activity measurements Immediately after the injection of scopolamine, the rats were placed into the activity monitors and total distance travelled over the first 30 min was measured.
Animals receiving the combination of JNJ-42153605 and scopolamine (n=433) almost always travelled a distance of less than 1500 cm (<1500 cm) (only 2.5% of the control rats travelled a distance of more than 1500 cm (>1500 cm)). On the other hand, animals challenged with scopolamine alone (n=215) always travelled a total distance of more than 1500 cm (>1500 cm) and almost always (in 95.8% of the rats) a distance of more than 4400 cm (>4400 cm). […] For reversal of the inhibitory effect of JNJ-42153605 on the scopolamine-induced hyperlocomotion, two all-or-none criteria were adopted: (1) reversal: total distance >1500 cm; (2) normalization: total distance >4400 cm.

SMILES | IC50 [1] [M] | Emax [1] [%] | melting point | ED50 ([2]; Route PO) [mg/kg] | ED50 ([2]; Route SC) [mg/kg]
Cc1cc(-c2cnn3c2C(=O)N(c2ccc(C(F)(F)F)c(Cl)c2)C[C@@H]3C)ccn1 [compound 3] | 1.78e-09 | 106 | – | 1.99 | –
Cc1cc(-c2cnn3c2C(=O)N(c2ccc(S(F)(F)(F)(F)F)cc2)C[C@@H]3C)ccn1 [compound 4] | 3.31e-09 | 104 | 247 °C | 1.26 | –
Cc1cc(-c2cnn3c2C(=O)N(c2ccc(Cl)c(Cl)c2)C[C@@H]3C)ccn1 [compound 6] | 5.01e-09 | 106 | – | 0.8 | –
Cc1cc(-c2cnn3c2C(=O)N(c2ccc(Cl)c(C(F)(F)F)c2)C[C@@H]3C)ccn1 [compound 9] | 1.05e-08 | 103 | 143.6 °C | ≥ 2.5 | –
Cc1cc(-c2cnn3c2C(=O)N(c2ccc(C(F)(F)F)c(F)c2)C[C@@H]3C)ccn1 [compound 10] | 1.17e-08 | 104 | – | 0.79 | –
COc1cc(N2C[C@H](C)n3ncc(-c4ccnc(C)c4)c3C2=O)ccc1C(F)(F)F [compound 12] | 1.95e-08 | 104 | – | 1.25 | –
Cc1cc(-c2cnn3c2C(=O)N(c2ccc(C(F)(F)F)c(C#N)c2)C[C@@H]3C)ccn1 [compound 13] | 2.95e-08 | 103 | 128.9 °C | 7.94 | –
Cc1cc(-c2cnn3c2C(=O)N(c2ccc(C(F)(F)F)cc2)C[C@@H]3C)cc(C)n1 [compound 14] | 2.4e-08 | 104 | – | 5 | –
Cc1cc(-c2cnn3c2C(=O)N(c2cccc(Cl)c2)C[C@@H]3C)ccn1 [compound 16] | 5.13e-08 | 102 | – | – | ≥ 10
CCOc1cc(N2C[C@H](C)n3ncc(-c4ccnc(C)c4)c3C2=O)ccc1Cl [compound 18] | 5.25e-08 | 102 | 98.5 °C | ≥ 10 | –
COc1cc(N2C[C@H](C)n3ncc(-c4ccnc(C)c4)c3C2=O)ccc1Cl [compound 19] | 6.92e-08 | 105 | 137 °C | ≥ 10 | –
Cc1cc(-c2cnn3c2C(=O)N(c2ccc(C(F)(F)F)c(Cl)c2)C[C@@H]3C)cc(C)n1 [compound 43] | 2.88e-09 | 107 | – | 1.26 | –
Cc1cc(-c2cnn3c2C(=O)N(c2ccc(Cl)c(Cl)c2)C[C@@H]3C)cc(C)n1 [compound 47] | 6.46e-09 | 105 | – | 1.99 | –
CNc1cc(-c2cnn3c2C(=O)N(c2ccc(C(F)(F)F)c(Cl)c2)C[C@@H]3C)cc(C#N)n1 [compound 95] | 1.78e-09 | 110 | 210.61 °C (dec.) | > 2.5 | –
C[C@H]1CN(c2ccc(C(F)(F)F)cc2)C(=O)c2c(-c3ccnc(C(F)(F)F)c3)cnn21 [compound 99] | 1.45e-08 | 108 | 126.4 °C | ≥ 2.5 | –
CNc1cc(-c2cnn3c2C(=O)N(c2ccc(C(F)(F)F)c(Cl)c2)C[C@@H]3C)ccn1 [compound 103] | – | – | – | 0.96 | –
COc1cc(-c2cnn3c2C(=O)N(c2ccc(C(F)(F)F)c(Cl)c2)C[C@@H]3C)ccn1 [compound 104] | 3.72e-09 | 108 | – | ≥ 2.5 | –
COc1cc(-c2cnn3c2C(=O)N(c2ccc(Cl)c(Cl)c2)C[C@@H]3C)ccn1 [compound 142] | 6.61e-09 | 105 | – | 1.99 | –
Cc1cc(-c2cnn3c2C(=O)N(c2ccc(C(F)(F)F)c(Cl)n2)C[C@@H]3C)ccn1 [compound 188, (7S)-5-[6-chloro-5-(trifluoromethyl)-2-pyridyl]-7-methyl-3-(2-methyl-4-pyridyl)-6,7-dihydropyrazolo[1,5-a]pyrazin-4-one] | 4.07e-09 | 108 | 161.4 °C | – | –

More lines, main results first:

IC50 [1] [M] | Emax [1] [%] | melting point | SMILES | ED50 ([2]; Route PO) [mg/kg] | ED50 ([2]; Route SC) [mg/kg]
4.07e-08 | 102 | 142.4 °C | CCOc1nc(N2C[C@H](C)n3ncc(-c4ccnc(C)c4)c3C2=O)ccc1C(F)(F)F [compound 189, (7S)-5-[6-Ethoxy-5-(trifluoromethyl)-2-pyridyl]-7-methyl-3-(2-methyl-4-pyridyl)-6,7-dihydropyrazolo[1,5-a]pyrazin-4-one] | – | –
1.07e-06 | 109 | 60.7 °C | CCOc1ccc(N2C[C@H](C)n3ncc(-c4ccnc(C)c4)c3C2=O)nc1F [compound 191] | – | –
1.51e-07 | 104 | 146.6 °C | C[C@H]1CN(c2ccc(C(F)(F)F)cn2)C(=O)c2c(-c3ccnc(F)c3)cnn21 [compound 197] | – | –
4.9e-09 | 107 | 292.8 °C | Cc1cc(-c2cnn3c2C(=O)N(c2cc(Cl)c(C(F)(F)F)cn2)C[C@@H]3C)ccn1 [compound 204, (7S)-5-[4-Chloro-5-(trifluoromethyl)-2-pyridyl]-7-methyl-3-(2-methyl-4-pyridyl)-6,7-dihydropyrazolo[1,5-a]pyrazin-4-one] | – | –
1.02e-08 | 102 | 179.2 °C | CCOc1nc(N2C[C@H](C)n3ncc(-c4cc(C)nc(C)c4)c3C2=O)ccc1C(F)(F)F [compound 205] | – | –
3.8e-09 | 109 | 147.6 °C | COc1nc(N2C[C@H](C)n3ncc(-c4ccnc(C)c4)c3C2=O)ccc1C(F)(F)F [compound 207] | – | –
2.24e-08 | 107 | 141.3 °C | CCOc1nc(N2C[C@H](C)n3ncc(-c4ccncc4)c3C2=O)ccc1C(F)(F)F [compound 208] | – | –
2.34e-08 | 105 | 125.66 °C (dec.) | CNc1cc(-c2cnn3c2C(=O)N(c2ccc(C(F)(F)F)cn2)C[C@@H]3C)ccn1 [compound 210] | – | –
4.47e-06 | 97 | 255.5 °C | Cc1cc(-c2cnn3c2C(=O)N(c2ccc(C(F)(F)F)cc2)CC3C(C)O)ccn1 (centres unmarked) [compound 217] | – | –
1.26e-06 | 102 | 93 °C | CC(=O)N1CC(c2ccc(-c3cnn4c3C(=O)N(c3ccc(C(F)(F)F)cc3)C[C@@H]4C)cn2)C1 [compound 235] | – | –
7.24e-09 | 105 | – | Cc1cc(-c2cnn3c2C(=O)N(c2ccc(SC(F)(F)F)cc2)C[C@@H]3C)ccn1 [compound 236] | > 2.5 | –
6.76e-09 | 109 | 107.87 °C (dec.) | COc1cc(-c2cnn3c2C(=O)N(c2ccc(C(F)(F)F)c(OC)n2)C[C@@H]3C)ccn1 [compound 240] | – | –
1.29e-08 | 110 | – | CNc1cc(-c2cnn3c2C(=O)N(c2ccc(C(F)(F)F)cc2)C[C@@H]3C)cc(OC)n1 [compound 242] | > 2.5 | –
6.31e-09 | 116 | – | CNc1cc(-c2cnn3c2C(=O)N(c2ccc(C(F)(F)F)c(C)c2)C[C@@H]3C)ccn1 [compound 251] | > 0.63 | –
1.51e-09 | 107 | – | CCNc1cc(-c2cnn3c2C(=O)N(c2ccc(C(F)(F)F)c(Cl)c2)C[C@@H]3C)ccn1 [compound 255] | 0.79 | –
3.63e-09 | 108 | – | CCNc1cc(-c2cnn3c2C(=O)N(c2ccc(C(F)(F)F)c(C)c2)C[C@@H]3C)ccn1 [compound 256] | ≥ 2.5 | –
3.63e-09 | 108 | – | CCNc1cc(-c2cnn3c2C(=O)N(c2ccc(Cl)c(Cl)c2)C[C@@H]3C)ccn1 [compound 257] | ≥ 2.5 | –
5.25e-08 | 106 | 173.08 °C | CC(C)Nc1cc(-c2cnn3c2C(=O)N(c2ccc(C(F)(F)F)cc2)C[C@@H]3C)ccn1 [compound 266] | – | –
2.24e-08 | 107 | 131.3 °C | Cc1cc(N2C[C@H](C)n3ncc(-c4ccnc(NC(C)C)c4)c3C2=O)ccc1C(F)(F)F [compound 267] | – | –

Source: patent US10106542B2, “Substituted 6,7-dihydropyrazolo[1,5-a]pyrazines as negative allosteric modulators of mGluR2 receptors” (Janssen Pharmaceutica NV, priority 2013, dated 2018)
